According to patent publication US9822108B2, “Antimicrobial agents” (RUTGERS, THE STATE UNIVERSITY OF NEW JERSEY, priority 2012, dated 2017):
In brackets after ≈: the same amount, converted by molar mass.

What was measured:
[1] = system: methicillin-susceptible Staphylococcus aureus (MSSA); assay: Antibacterial assay (Test C, broth microdilution MIC) against MSSA; type: cell-based; conditions: minimal inhibitory concentration, 37° C., growth read after 24 to 48 hours at OD 600 nm, read-out: MSSA (MIC ug/ml)
Protocol: (§1) Test C. Antibacterial Assay.
(§2) Antibacterial activity can be determined as per Clinical and Laboratory Standards Institute (CLSI) guidelines using a broth microdilution assay in which log-phase bacteria are grown at 37° C. in appropriate medium containing two-fold serial dilutions of a compound to yield final concentrations ranging from 256 to 0.06 μg/mL. For determination of minimal inhibitory concentration (MIC) values, bacterial growth is monitored after 24 to 48 hours by measuring optical density at 600 nm.
(§3) Using a procedure similar to Test C, representative compounds of the invention were tested against methicillin-susceptible Staphylococcus aureus (MSSA) and methicillin-resistant Staphylococcus aureus (MRSA).

[2] = system: methicillin-resistant Staphylococcus aureus (MRSA); assay: Antibacterial assay (Test C, broth microdilution MIC) against MRSA; type: cell-based; conditions: minimal inhibitory concentration, 37° C., growth read after 24 to 48 hours at OD 600 nm, read-out: MRSA (MIC ug/ml)
Protocol: as §1, §2, §3

Row | SMILES | MIC [1] [µg/mL] | MIC [2] [µg/mL]
1 | C[n+]1cc(-c2ccccc2)nc2ccccc21 [Example 1] | 2 | 8
2 | C[n+]1cc(-c2cccc(F)c2)nc2ccccc21 [Example 2] | 2 | 4
3 | C[n+]1cc(-c2cccc(-c3ccccc3)c2)nc2ccccc21 [Example 3] | 0.25 | 0.25
4 | C[n+]1cc(-c2cccc(C(C)(C)C)c2)nc2ccccc21 [Example 4] | 0.5 | 1
5 | C[n+]1cc(-c2ccc(C(C)(C)C)cc2)nc2ccccc21 [Example 5] | 0.5 | 1
6 | COC(=O)c1cc(-c2ccc(C(C)(C)C)cc2)cc(-c2c[n+](C)c3ccccc3n2)c1 [Example 6] | 0.5 | 1
7 | C[n+]1cc(-c2cc(C(N)=O)cc(-c3ccc(C(C)(C)C)cc3)c2)nc2ccccc21 [Example 7] | 2 | 2
8 | C[n+]1cc(-c2cc(C(=O)NCCO)cc(-c3ccc(C(C)(C)C)cc3)c2)nc2ccccc21 [Example 8] | 4 | 4
9 | CC(C)(C)c1ccc(-c2cc(C(=O)NCCN)cc(-c3cnc4ccccc4n3)c2)cc1 [Example 9] | 4 (≈ 9.42 µM) | 4 (≈ 9.42 µM)
10 | CC(C)(C)c1ccc(-c2cnc3c(CNC(=N)N)cccc3n2)cc1 [Example 10] | 2 (≈ 6 µM) | 2 (≈ 6 µM)
11 | CC(C)(C)c1cccc(-c2cnc3c(CNC(=N)N)cccc3n2)c1 [Example 11] | 1 (≈ 3 µM) | 2 (≈ 6 µM)
12 | CC(C)(C)c1ccc(-c2ncnc3c(CNC(=N)N)cccc23)cc1 [Example 12] | 2 (≈ 6 µM) | 4 (≈ 12 µM)
13 | CC(=N)NCc1cccc2c(-c3ccc(C(C)(C)C)cc3)ncnc12 [Example 13] | 32 (≈ 96.3 µM) | 64 (≈ 193 µM)
14 | CC(C)(C)c1ccc(-c2ncnc3c(CN)cccc23)cc1 [Example 14] | 32 (≈ 110 µM) | 64 (≈ 220 µM)
15 | Cc1cccc(-c2nc3ccccc3nc2NCCN)c1 [Example 15] | > 64 | > 64
16 | CC(C)(C)c1ccc(-c2cccc3c(CNC(=N)N)ncnc23)cc1 [Example 16] | 8 (≈ 24 µM) | 64 (≈ 192 µM)
17 | CC(C)(C)c1ccc(-c2ccnc3c(CNC(=N)N)ccnc23)cc1 [Example 17] | 4 (≈ 12 µM) | 8 (≈ 24 µM)
18 | CC(C)(C)c1ccc(-c2ccnc3c(CN)ccnc23)cc1 [Example 18] | > 64 | > 64
19 | CC(C)(C)c1ccc(-c2nnc(CNC(=N)N)c3ccccc23)cc1 [Example 19] | 16 (≈ 48 µM) | 
20 | CC(C)(C)c1cccc(-c2nc(CNC(=N)N)c3ccccc3n2)c1 [Example 20] | 4 (≈ 12 µM) | 
21 | CC(C)(C)c1cccc(-c2cnc3cccc(CNC(=N)N)c3n2)c1 [Example 21] | 2 (≈ 6 µM) | 2 (≈ 6 µM)
22 | CC(C)(C)c1cccc(-c2cnc3cc(CNC(=N)N)ccc3n2)c1 [Example 22] | 4 (≈ 12 µM) | 8 (≈ 24 µM)
